What all share (format): cell-based
One assay relates to HCC827 cells. The experiment in a line: Cell growth inhibition (CellTiter-Glo), HCC827. The note with it: Homo sapiens, 72 h, 3 days. As for the experimental part:
(§1) 2. Cell Growth Inhibition for HCC827, HCC827-SVD, HCC827-ASV, HCC827-YVMA, and A431.
(§2) HCC827(ATCC), HCC827-SVD, HCC827-ASV, and HCC827-YVMA cells were seeded in 96-well plates at 5000 cells/well in 90 μL of RPMI growth medium containing 10% FBS and 1% Penicillin Streptomycin. A431 (ATCC) cells were seeded in 96-well plates at 5000 cells/well in 90 μL of DMEM growth medium containing 10% FBS and 1% Penicillin Streptomycin. Cells were incubated at 37° C. overnight and then administered with 10 μL 10× test compounds prepared in the growth medium at various concentrations. After administration of the compounds, cells were incubated at 37° C. for 3 days. Before the CellTiter-Glo assay, the plates were equilibrated at room temperature for approximately 30 minutes. 100 ul of CellTiter-Glo reagent (Promega) was added to each well. The plates were then incubated at room temperature for 10 minutes and luminescence was recorded by the EnSight® multimode plate reader (PerkinElmer). Table 7 listed selected compounds in cellular growth assay.
Background: ATP-based viability assays read luminescence as a measure of living cells.

The subject of assay [1] is HCC827-SVD cells (human EGFR exon 20 insertion mutant D770_N771insSVD). Put plainly: Cell growth inhibition (CellTiter-Glo), HCC827-SVD. The settings on record: 72 h, 3 days. A digest of the protocol: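 Growth read by CellTiter-Glo luminescence after 3-day compound exposure at 37 °C. Engineered clonal HCC827 line (native EGFR deleted by CRISPR, mutant EGFR re-expressed) plated at 5000 cells/well in 10% FBS RPMI the night before dosing.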

Assay [2] has as its system HCC827-YVMA cells (human ERBB2 exon20 insertion mutant A775_G776ins YVMA). Put plainly: Cell growth inhibition (CellTiter-Glo), HCC827-YVMA. The note with it: 72 h, HCC827-YVMA cells, 3 days, CellTiter-Glo, read-out: Cell growth inhibition, GI50 (nM) HCC827-YVMA. A digest of the protocol: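 Growth in RPMI with 10% FBS was measured by CellTiter-Glo luminescence after 3 days at 37 °C with test compounds across a concentration range. The single-clone HCC827 lines carry a lentiviral YVMA (ERBB2) or ASV (EGFR) exon 20 insertion, with endogenous EGFR removed via sgRNA/Cas9.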

The subject of a further assay is A431 cells. Put plainly: Cell growth inhibition (CellTiter-Glo), A431. The note with it: Homo sapiens, A-431, 72 h, 3 days. Here is the method: as §1, §2

For the compound `C=CC(=O)N1CCC(c2c[nH]c3ncnc(Nc4ccc(Oc5ccnc(N6CCOC(C)C6)c5)cc4F)c23)CC1` (stereo in doubt) [Compound 141, (S)-1-(4-(4-((2-fluoro-4-((2-(2-methylmorpholino)pyridin-4-yl)oxy)phenyl)amino)-7H-pyrrolo[2,3-d]pyrimidin-5-yl)piperidin-1-yl)prop-2-en-1-one], the GI50 (as a rule, the concentration that inhibits growth by half) in the assay with HCC827 cells was above 1000 nM; in assay [1] it was 50 to 200 nM; in assay [2], 50 to 200 nM; with A431 cells, above 1000 nM.

`C=CC(=O)N1CCC(c2c[nH]c3ncnc(Nc4ccc(Oc5ccnc(-n6ccc(OC(C)C)n6)c5)cc4F)c23)CC1` [Compound 115, 1-(4-(4-((2-fluoro-4-((2-(3-isopropoxy-1H-pyrazol-1-yl)pyridin-4-yl)oxy)phenyl)amino)-7H-pyrrolo[2,3-d]pyrimidin-5-yl)piperidin-1-yl)prop-2-en-1-one]: the concentration for 50% growth inhibition (GI50) (with HCC827 cells; in assay [1]; in assay [2]) was 50 to 200 nM in each case.

With `C=CC(=O)N1CCC(c2c[nH]c3ncnc(Nc4ccc(OCc5cc(Cl)ccn5)c(Cl)c4)c23)CC1` [Compound 117, 1-(4-(4-((3-chloro-4-((4-chloropyridin-2-yl)methoxy)phenyl)amino)-7H-pyrrolo[2,3-d]pyrimidin-5-yl)piperidin-1-yl)prop-2-en-1-one], the GI50 (in the assay with HCC827 cells; in assay [1]; in assay [2]) was below 50 nM in each case.

Turning to `C=CC(=O)N1CCC(c2c[nH]c3ncnc(Nc4ccc(OCc5ccc(F)cn5)c(Cl)c4)c23)CC1` [Compound 118, 1-(4-(4-((3-chloro-4-((5-fluoropyridin-2-yl)methoxy)phenyl)amino)-7H-pyrrolo[2,3-d]pyrimidin-5-yl)piperidin-1-yl)prop-2-en-1-one], the GI50 (in the assay on HCC827 cells; in assay [1]; in assay [2]) was below 50 nM each time.

For the compound `C=CC(=O)N1CCC(c2c[nH]c3ncnc(Nc4ccc(OCc5cccnn5)c(Cl)c4)c23)CC1` [Compound 120, 1-[4-[4-[3-chloro-4-(pyridazin-3-ylmethoxy)anilino]-7H-pyrrolo[2,3-d]pyrimidin-5-yl]-1-piperidyl]prop-2-en-1-one], the GI50 (in the assay on HCC827 cells; in assay [1]; in assay [2]) was below 50 nM throughout.

On to `C=CC(=O)N1CCC(c2c[nH]c3ncnc(Nc4ccc(OCc5cccnc5)c(Cl)c4)c23)CC1` [Compound 121, 1-(4-(4-((3-chloro-4-(pyridin-3-ylmethoxy)phenyl)amino)-7H-pyrrolo[2,3-d]pyrimidin-5-yl)piperidin-1-yl)prop-2-en-1-one], for which the GI50 (in the assay with HCC827 cells; in assay [1]; in assay [2]) was below 50 nM in each case.

With `C=CC(=O)N1CCC(c2c[nH]c3ncnc(Nc4ccc(Oc5ccnc(N6CCC(O)(C(F)(F)F)CC6)c5)cc4F)c23)CC1` [Compound 122, 1-(4-(4-((2-fluoro-4-((2-(4-hydroxy-4-(trifluoromethyl)piperidin-1-yl)pyridin-4-yl)oxy)phenyl)amino)-7H-pyrrolo[2,3-d]pyrimidin-5-yl)piperidin-1-yl)prop-2-en-1-one], the figures for the GI50 (in the assay on HCC827 cells; in assay [1]; in assay [2]) were above 1000 nM, 200 to 1000 nM and 200 to 1000 nM, respectively.

For the compound `C=CC(=O)N1CCC(c2c[nH]c3ncnc(Nc4ccc(Oc5ccnc(-c6cnn(C)c6)c5)cc4F)c23)CC1` [Compound 125, 1-(4-(4-((2-fluoro-4-((2-(1-methyl-1H-pyrazol-4-yl)pyridin-4-yl)oxy)phenyl)amino)-7H-pyrrolo[2,3-d]pyrimidin-5-yl)piperidin-1-yl)prop-2-en-1-one], the GI50 is above 1000 nM in the assay on HCC827 cells, 200 to 1000 nM in assay [1] and 200 to 1000 nM in assay [2].

For `C=CC(=O)N1CCC(c2c[nH]c3ncnc(Nc4ccc(OCc5ccc(Cl)cn5)c(Cl)c4)c23)CC1` [Compound 126, 1-(4-(4-((3-chloro-4-((5-chloropyridin-2-yl)methoxy)phenyl)amino)-7H-pyrrolo[2,3-d]pyrimidin-5-yl)piperidin-1-yl)prop-2-en-1-one], the GI50 (in the assay on HCC827 cells; in assay [1]; in assay [2]) was below 50 nM throughout.

As to `C=CC(=O)N1CCC(c2c[nH]c3ncnc(Nc4ccc(OCc5ccncc5)c(Cl)c4)c23)CC1` [Compound 127, 1-(4-(4-((3-chloro-4-(pyridin-4-ylmethoxy)phenyl)amino)-7H-pyrrolo[2,3-d]pyrimidin-5-yl)piperidin-1-yl)prop-2-en-1-one], the concentration for 50% growth inhibition (GI50) is 50 to 200 nM with HCC827 cells, below 50 nM in assay [1] and below 50 nM in assay [2].

Consider `C=CC(=O)N1CCC(c2c[nH]c3ncnc(Nc4ccc(OCc5ncccn5)c(Cl)c4)c23)CC1` [Compound 128, 1-(4-(4-((3-chloro-4-(pyrimidin-2-ylmethoxy)phenyl)amino)-7H-pyrrolo[2,3-d]pyrimidin-5-yl)piperidin-1-yl)prop-2-en-1-one], for which the GI50 (with HCC827 cells; in assay [1]; in assay [2]) was below 50 nM throughout.

Take `C=CC(=O)N1CCC(c2c[nH]c3ncnc(Nc4ccc(Oc5ccnc(N6CC7CC7C6)c5)cc4F)c23)CC1` (stereo not shown) [Compound 131, 1-(4-(4-((4-((2-(3-azabicyclo[3.1.0]hexan-3-yl)pyridin-4-yl)oxy)-2-fluorophenyl)amino)-7H-pyrrolo[2,3-d]pyrimidin-5-yl)piperidin-1-yl)prop-2-en-1-one]: the GI50 is above 1000 nM in the assay with HCC827 cells, 50 to 200 nM in assay [1] and 50 to 200 nM in assay [2].

With `C=CC(=O)N1CCC(c2c[nH]c3ncnc(Nc4ccc(Oc5ccnc(N(C)C6CC(F)(F)C6)c5)cc4F)c23)CC1` [Compound 132, 1-(4-(4-((4-((2-((3,3-difluorocycloButyl)(methyl)amino)pyridin-4-yl)oxy)-2-fluorophenyl)amino)-7H-pyrrolo[2,3-d]pyrimidin-5-yl)piperidin-1-yl)prop-2-en-1-one], the results for the GI50 (in the assay with HCC827 cells; in assay [1]; in assay [2]) were above 1000 nM, 200 to 1000 nM and 50 to 200 nM, respectively.

Regarding `C=CC(=O)N1CCC(c2c[nH]c3ncnc(Nc4ccc(Oc5ccnc(-n6ccc(C(C)C)n6)c5)cc4F)c23)CC1` [Compound 133, 1-(4-(4-((2-fluoro-4-((2-(3-isopropyl-1H-pyrazol-1-yl)pyridin-4-yl)oxy)phenyl)amino)-7H-pyrrolo[2,3-d]pyrimidin-5-yl)piperidin-1-yl)prop-2-en-1-one], the values for the 50% growth inhibitory concentration (GI50) (in the assay on HCC827 cells; in assay [1]; in assay [2]) were above 1000 nM, 50 to 200 nM and 50 to 200 nM, respectively.

For the compound `C=CC(=O)N1CCC(c2c[nH]c3ncnc(Nc4ccc(Oc5ccn(Cc6cc(Oc7ccccc7)ccn6)n5)cc4F)c23)CC1` [Compound 151, 1-(4-(4-((2-fluoro-4-((1-((4-phenoxypyridin-2-yl)methyl)-1H-pyrazol-3-yl)oxy)phenyl)amino)-7H-pyrrolo[2,3-d]pyrimidin-5-yl)piperidin-1-yl)prop-2-en-1-one], the results for the GI50 (in the assay on HCC827 cells; in assay [1]; in assay [2]) were above 1000 nM, 200 to 1000 nM and 50 to 200 nM, respectively.

Turning to `C=CC(=O)N1CCC(c2n[nH]c3ncnc(Nc4ccc(Oc5ccc(-c6cc(-c7ccccc7)[nH]c(=O)c6)nc5)c(Cl)c4F)c23)CC1` [Compound 170, 5-(4-((3-(1-acryloylpiperidin-4-yl)-1H-pyrazolo[3,4-d]pyrimidin-4-yl)amino)-2-chloro-3-fluorophenoxy)-6′-phenyl-[2,4′-bipyridin]-2′(1′H)-one], the GI50 with HCC827 cells was 200 to 1000 nM; in assay [1] it was 50 to 200 nM; in assay [2], 50 to 200 nM.

Regarding `C=CC(=O)N1CCC(c2n[nH]c3ncnc(Nc4ccc(Oc5nc(-c6ccc(OC)nc6)cs5)cc4F)c23)CC1` [Compound 189, 1-(4-(4-((2-fluoro-4-((4-(6-methoxypyridin-3-yl)thiazol-2-yl)oxy)phenyl)amino)-1H-pyrazolo[3,4-d]pyrimidin-3-yl)piperidin-1-yl)prop-2-en-1-one], the GI50 was above 1000 nM in the assay on HCC827 cells, 200 to 1000 nM in assay [1] and 200 to 1000 nM in assay [2].

As to `C=CC(=O)N1CCC(c2n[nH]c3ncnc(Nc4ccc(Oc5ccnc(NC(=O)C6CCCC6)c5)cc4F)c23)CC1` [Compound 193, N-(4-(4-((3-(1-acryloylpiperidin-4-yl)-1H-pyrazolo[3,4-d]pyrimidin-4-yl)amino)-3-fluorophenoxy)pyridin-2-yl)cyclopentanecarboxamide], the GI50 was above 1000 nM in the assay on HCC827 cells, 50 to 200 nM in assay [1] and 50 to 200 nM in assay [2].

For the compound `C=CC(=O)N1CCC(c2n[nH]c3ncnc(Nc4ccc(Oc5ccnc(NC(=O)C6CCOCC6)c5)cc4F)c23)CC1` [Compound 194, N-(4-(4-((3-(1-acryloylpiperidin-4-yl)-1H-pyrazolo[3,4-d]pyrimidin-4-yl)amino)-3-fluorophenoxy)pyridin-2-yl)tetrahydro-2H-pyran-4-carboxamide], the results for the GI50 (in the assay on HCC827 cells; in assay [1]; in assay [2]) were above 1000 nM, 200 to 1000 nM and 200 to 1000 nM, respectively.
